In patent US5807899A, “Triphenylethylenes, process for their production, pharmaceutical preparations that contain these triphenylethylenes as well as their use for the production of pharmaceutical agents” (Schering Aktiengesellschaft, priority 1995, dated 1998):
pIC50: −log10 of the molar value.

Assays:
[1] = tested on: estrogens (antiestrogenic / estrogenic activity); settings: reference compound; cited from earlier work
HeLa cell line = assay: Transactivation assay for antiestrogenic action, HeLa cell line; assay type: cell-based; settings: Homo sapiens, antiestrogenic action in transactivation assay
Description: The compounds of general formula I according to this application are distinguished by a new type of side chain on the phenoxy radical in comparison to the already known tamoxifen derivatives. […] As mentioned an estrogenic partial action can also be present in the-compounds according to the invention. The antiestrogenic and optionally estrogenic action of the compounds according to the invention was determined in a transactivation assay [Demirpence, E.; Duchesne, M.-J.; Badia, E.; Gagne, D.; and Pons, M.: MVLN Cells: A Bioluminescent MCF-7-Derived Cell Line to Study the Modulation of Estrogenic Activity; J. Steroid Molec. Biol.. Vol. 46, No. 3, 355-364 (1993) as well as Savouret, J. F.; Bailly, A.; Misrahi, M.; Rauch, C.; Redeuilh, G.; Chauchereau, A. and Milgrom, E.: Characterization of the Hormone Responsive Element Involved in the Regulation of the Progesterone Receptor Gene, The EMBO Journal Vol. 10, No. 7, 1875-1883 (1991)].
The IC50 values for the new compounds lie in the nanomolar range. In the HeLa cell line, the following IC50 values are produced for the compounds of Examples 5, 12, 13 and 16 (test implementation according to the bibliographic references indicated above): […]

Structure (SMILES)	pIC50 (HeLa cell line)	antiestrogenic / estrogenic profile of tamoxifen [1]
CC/C(=C(\c1ccccc1)c1ccc(OCCN(C)C)cc1)c1ccccc1 [tamoxifen]	–	antiestrogens with estrogenic partial action
CCC(=C(c1ccc(O)cc1)c1ccc(OCCCCC[S+]([O-])Cc2ccccn2)cc1)c1ccccc1 (centres unmarked) [Example 12, 4-((E,Z)-2-Phenyl-1-{4-[5-(pyridin-2-ylmethanesulfinyl)-pentyloxy]-phenyl}-but-1-enyl)-phenol]	8.55	–
CCC(=C(c1ccc(O)cc1)c1ccc(OCCCCCSCc2ccccn2)cc1)c1ccccc1 [Example 11, 4-((E,Z)-2-Phenyl-1-{4-[5-(pyridin-2-ylmethylsulfidyl)-pentyloxy]-phenyl}-but-1-enyl)-phenol]	8.30	–

More lines, main results first:

pIC50 (HeLa cell line)	Structure (SMILES)	antiestrogenic / estrogenic profile of tamoxifen [1]
9.00	CCC(=C(c1ccc(O)cc1)c1ccc(OCCCCC[S+]([O-])CCCC(F)(F)C(F)(F)F)cc1)c1ccccc1 (centres unmarked) [Example 5, 4-(1-{4-[5-(4,4,5,5,5-Pentafluoropentanesulfinyl)-pentyloxy]-phenyl}-2-phenyl-but-1-enyl)-phenol]	–
7.77	CCC(=C(c1ccc(I)cc1)c1ccc(OCCCCC[S+]([O-])CCCC(F)(F)C(F)(F)F)cc1)c1ccccc1 (centres unmarked) [Example 15, (5-{4-[(E,Z)-1-(4-Iodophenyl)-2-phenyl-but-1-enyl]-phenoxy}-pentyl)-(4,4,5,5,5-pentafluoropentyl)-sulfoxide]	–
